Results reported in patent US12595269B2, “Morpholine-like monoamine releasers” (Solvonis Therapeutics Ireland Holdings Limited, priority 2022, dated 2026).
Values after ≈ are worked out from the molar mass of the structure shown. Read-outs that look alike come from different tables or passages of the source.

Tests used:
[1] = Solubility in PBS pH 7.4 by HPLC-UV; format: physicochemical; details: PBS buffer, aqueous buffer, kinetic from dmso stock; PBS pH 7.4, about 2% DMSO, 120 minutes at room temperature
Protocol: Methods and Procedure: This study was designed in compliance with previously described procedures to assure data integrity and adherence to GLP principles. Control compounds included ibuprofen as a reference for high solubility and progesterone as a reference for low solubility. Stock solutions of compounds described herein (20 mM) were prepared in DMSO, on the same day of the experiment when feasible.
These solutions were compared with an external standard solution of known concentration via HPLC-UV To prepare the standard, 4 μL from a 20 mM compound stock solution was added to DMSO in a vial/well, and mixed with shaking at room temperature for 10 minutes. […]
Concentrations were determined by comparing UV absorbance of the test solution and of the known standard solution following HPLC separation using a generic fast gradient method employing a DAD detector and UV detection at 230 and 254 nm. […] The solubility of each compound was expressed as the ratio of compound amount in the sample test solution to the amount of compound in the standard solution, calculated from the equation “solubility of sample=peak area of sample/peak area of standard×concentration of standard.”

[2] = Pharmacokinetic and brain penetration study, intravenous and oral administration in rats; format: in vivo; details: rat; for concentration at 8 h: read-out: Clast; for Vd: read-out: Vss
Protocol: Methods and Procedure: The study was conducted in agreement with procedures to assure data integrity and GLP principles. Three experimental groups, as outlined below, were included in the study:
Group 1: Exemplary compound 522A was administered via the IV route to three rats at a target dose level of 0.5 mg/kg. Blood and brain samples were collected at 2h after IV administration.
Group 2: Exemplary compound 522A was administered via the IV route to three rats (brain penetration group) at a target dose level of 0.5 mg/kg. Blood and brain samples were collected at 2h after IV administration.
Group 3: Exemplary compound 522A was orally administered to three rats at a target dose level of 1 mg/kg. Blood samples were collected up to 24h after oral administration.
All test formulations were prepared on the day of administration prior to dosing, stored at room temperature, and used as soon as possible. Formulations were prepared and administered by volume for both IV and oral dosing. Actual body weights were determined on the day of dose administration, and the dose volumes were adjusted to the weight of the animal at the time of dose administration.
Blood was collected into K3 EDTA tubes at each of the following time points post-administration: • Group 1 (ITS): 0.083, 0.33, 1, 2, 4, 6, 8, and 24 hours after dosing • Group 2 (ITS): 2 hours after dosing for terminal brain analysis • Group 3 (Oral): 0.250, 0.5, 1, 2, 4, 6, 8, and 24 hours after dosing
All blood samples were thoroughly but gently mixed following collection and then placed on wet ice. Within 0.5 h of collection, blood was centrifuged (3000 g for 10 minutes at approximately 4° C.). Within 0.5 hours, 20 μL of each plasma sample was transferred into micronic tubes containing 80 μL of 0.1N Hepes buffer (pH 7.0-7.5). Residual plasma was transferred in micronic tubes as a second aliquot.
Brain specimens were diluted with 4 volumes of 0. IN Hepes buffer and homogenized using the Precellys system. Blood and brain samples were assayed using an optimized method based on protein precipitation with acetonitrile followed by HPLC/MS-MS analysis. Given the unknown stability of analytes in blood and brain, Calibration standards (CS) and Quality control samples (QC) were prepared in blood and brain samples on the day of dosing and stored together with study samples. It is assumed this procedure accounted for any possible analyte degradation.
Study samples, CS, QC, and blanks were spiked with an internal standard (IS), to improve the precision of the assay. Study samples were analyzed together with CS, QC and blank samples (including double blanks). From the calibration curve, the linear range of the analytical method was determined and the lower/upper limits of quantitation were specified.
The results of blood and brain specimens were subjected to non-compartmental pharmacokinetic analysis using Phoenix WinNonlin 6.3, with the following parameters reported: Calculated concentration of test items in the corresponding formulation (expressed as mg/mL), dose levels (expressed as mg/kg) for each compound, actual collection times (expressed as hh: mM), blood concentrations (expressed as ng/ml) for each compound, brain concentrations (expressed as ng/g) for each compound, PK parameters (iv: Cmax, AUC, CLp, Vss, t1/2, if applicable; oral (po): Cmax, tmax, AUC, F %, Fa %, Eh, AUC BB ratio, if applicable) for each compound, and abnormal clinical signs and relevant findings, if any.

[3] = plasma, iv, 0.5 mg/kg, 0.5 mg/kg (Table 8)
[4] = plasma, iv, 0.5 mg/kg, 0.5 mg/kg (Table 9)
[5] = plasma, iv, 0.5 mg/kg, IV, 0.5 mg/kg (Table 8)
[6] = plasma, iv, 0.5 mg/kg, IV, 0.5 mg/kg (Table 9)

## Clc1ccc(C23CNC(CO2)C3)cc1Cl (stereo not drawn) [522A, 1-(3,4-dichlorophenyl)-2-oxa-5-azabicyclo[2.2.1]heptane]
[1]
  solubility at 120 min: 384 µM (≈ 93.6 µg/mL)
[2]; brain and blood, 0.5 mg/kg, two hours after IV administration, read-out: concentration ratio of unbound drug in brain to blood (kp, uu)
  Kp uu at 2 h: 0.77
[2]; brain and plasma, 0.5 mg/kg, two hours after IV administration, read-out: mean brain-to-plasma ratio
  Kp at 2 h: 4.96
[2]; plasma, IV, 0.5 mg/kg (Table 8)
  Tmax: 0.08 h
[2]; plasma, oral (PO), 1 mg/kg
  Tmax: 2 h
[2]; plasma, oral (PO), 1 mg/kg versus IV
  bioavailability: 30.8%
[2]; IV, 0.5 mg/kg (Table 8)
  Tlast: 8 h
[2]; IV, 0.5 mg/kg (Table 9)
  Tlast: 8 h
[2]; brain, iv, 0.5 mg/kg, two hours after IV administration, 0.5 mg/kg, read-out: free concentration in the brain
  concentration at 2 h: 42.8 nM
[2]; brain, iv, 0.5 mg/kg, two hours after IV administration, 0.5 mg/kg, read-out: total concentration in the brain
  concentration at 2 h: 1930 nM
[2]; oral (PO), 1 mg/kg
  Tlast: 8 h
[2]; [3]
  AUC(0-inf): 1480 ng·h/mL
  AUC(0-t): 1460 ng·h/mL
  Cmax: 1890 ng/mL
  clearance: 5.71 mL/min/kg
  half-life: 1.36 h
[2]; [4]
  AUC(0-inf): 799 ng·h/mL
  AUC(0-t): 772 ng·h/mL
  Cmax: 878 ng/mL
  clearance: 11.6 mL/min/kg
  half-life: 1.65 h
[2]; [5]
  concentration at 8 h: 9.32 ng/mL
  Vd: 0.411 L/kg
[2]; [6]
  concentration at 8 h: 10.6 ng/mL
  Vd: 1.48 L/kg
[2]; plasma, iv, 0.5 mg/kg, two hours after IV administration, 0.5 mg/kg, read-out: free concentration in plasma
  concentration at 2 h: 71.3 nM
[2]; plasma, iv, 0.5 mg/kg, two hours after IV administration, 0.5 mg/kg, read-out: total plasma concentration
  concentration at 2 h: 594 nM
[2]; plasma, po, 1 mg/kg, oral (PO)
  AUC(0-inf): 509 ng·h/mL
  AUC(0-t): 442 ng·h/mL
  Cmax: 102 ng/mL
  half-life: 2.42 h
[2]; plasma, po, 1 mg/kg, oral (PO), 1 mg/kg
  concentration at 8 h: 19.3 ng/mL

## CNC(C)Cc1ccc2c(c1)OCO2 (stereo not drawn) [MDMA, reference compound]
[1]
  solubility at 120 min: 386 µM (≈ 74.6 µg/mL)
